Values after ≈ are worked out from the molar mass of the structure shown. “Also recorded” adds a separate entry of the source.

Holding throughout (format): physicochemical
The nature of data set [1]: Apparent water solubility. Particulars: stirred 1 hour. On the procedure:
ODM-201 Form 1, ODM-201 Form 2, ODM-201 Form 3, ODM-201 Form 4 and ODM-201 Form 5 in the present invention were tested for the apparent water solubility, and the specific operations were as follows.
Weighed accurately and placed 15 mg of sample in a 20 mL glass vial containing 5 mL of water, and placed the vials at 25±2° C. and 37±2° C. water bath respectively, stirred in dark (about 200 rpm/min) for 1 hour, filtered with a 0.45 µm filter and took the supernatant, diluted to a certain concentration, analyzed the concentration by HPLC.

Data set [2] can be described thus: Crystalline form stability experiment (XRD after storage). The conditions noted are these: stored 7 days at high temperature 60° C., high moisture content 97% RH, and 40° C.-75% RH. Here is the method:
X-ray powder diffraction (XRPD): performed on Bruker D8 Advance diffractometer. Samples were tested at room temperature. Testing conditions: scan range 3-40° 2θ, step size 0.02°2θ, and speed 0.2 s/step.
Crystalline form stability experiment: 15 mg of amorphous ODM-201, ODM-201 Form 1, ODM-201 Form 2, ODM-201 Form 4 and ODM-201 Form 5 in the present invention were respectively placed under the following different conditions: high temperature 60° C., high moisture content 97% RH, and 40° C.-75% RH. The samples were stored for 7 days before analyzed by XRD crystalline form measurements.

Data set [3] is described as follows: Isothermal sorption / dynamic vapor sorption (hygroscopicity). The conditions noted are these: between 0% RH and 80% RH. On the procedure:
Dynamic vapor sorption data and isothermal sorption data were collected on TA Instruments Q5000 TGA. Method: A sample of 1 to 10 mg was placed in a platinum pan; the weight change of the sample during the change in relative humidity from 0% to 80% to 0% was measured.

A short description of data set [4]: Chemical stability experiment (HPLC purity after storage). Particulars: for reduction of chemical purity after storage: dry condition (desiccator) at 60° C. for 7 days; for Purity (%): dry condition at 60° C., HPLC. On the procedure: HPLC purity data were collected on Ultimate 3000 high performance liquid chromatography under the following conditions: column AY-H (4.6*100 mm, 5 μm) detection wavelength 270 nm, column temperature 40° C., flow rate 0.8 mL/min, injection volume 5 μL. The sample was dissolved in ethanol to make a solution concentration about 1 mg/mL, and a gradient method using HPLC measurements to determine the purity of the sample. […]

As a reminder, the Solubility is the dissolved amount per volume that the medium holds. Take `CC(O)c1cc(C(=O)N[C@@H](C)Cn2ccc(-c3ccc(C#N)c(Cl)c3)n2)n[nH]1` (stereo partly drawn) [ODM-201 Form 2, N—((S)-1-(3-(3-chloro-4-cyanophenyl)-1H-pyrazol-1-yl)prop-2-yl)-5-(1-hydroxyethyl)-1H-pyrazole-3-carboxamide]: the figures for the “Solubility” value in data set [1] (25 ± 2° C.) and in data set [1] (37 ± 2° C.) were 27.6 µg/mL (≈ 69.2 µM) and 54.8 µg/mL (≈ 137 µM), respectively. Further, the “The test results after 7 days (crystalline form by XRD)” value (“The test results after 7 days” below) in data set [2] is “kept their original crystalline forms; also recorded: keeps its form unchanged; also recorded: Form 2”. For the same compound, in data set [3], the “moisture sorption (weight change)” value stood at 2.5%. The “reduction of chemical purity after storage” value (shortened to “reduction of chemical purity”) in data set [4] was “still kept their original respective purity level; also recorded: essentially unchanged”. In addition, the “Purity (%)” value in data set [4] (1 day) and in data set [4] (7 days) was 99.6% in each case.
Take `CC(O)c1cc(C(=O)N[C@@H](C)Cn2ccc(-c3ccc(C#N)c(Cl)c3)n2)n[nH]1` (stereo partly drawn) [ODM-201 Form 5, N—((S)-1-(3-(3-chloro-4-cyanophenyl)-1H-pyrazol-1-yl)prop-2-yl)-5-(1-hydroxyethyl)-1H-pyrazole-3-carboxamide]: the “Solubility” value in data set [1] (25 ± 2° C.) was found to be 17.7 µg/mL (≈ 44.4 µM); in data set [1] (37 ± 2° C.), 29.5 µg/mL (≈ 74 µM). Further, in data set [2], the “The test results after 7 days” value is on record as “kept their original crystalline forms; also recorded: keeps its form unchanged; also recorded: Form 5”. Further, in data set [3], the “moisture sorption (weight change)” value was “less than 0.5%”. Moreover, the “reduction of chemical purity” value in data set [4] is given as “still kept their original respective purity level; also recorded: essentially unchanged”. For the same compound, the entries for the “Purity (%)” value in data set [4] (1 day) and in data set [4] (7 days) were 99.6% and 99.5%, respectively.
`CC(O)c1cc(C(=O)N[C@@H](C)Cn2ccc(-c3ccc(C#N)c(Cl)c3)n2)n[nH]1` (stereo partly drawn) [ODM-201 Form 1, N—((S)-1-(3-(3-chloro-4-cyanophenyl)-1H-pyrazol-1-yl)prop-2-yl)-5-(1-hydroxyethyl)-1H-pyrazole-3-carboxamide]: in data set [1] (37 ± 2° C.), the “Solubility” value worked out at 17.4 µg/mL (≈ 43.6 µM). Moreover, the “The test results after 7 days” value in data set [2] is recorded as “keeps its form unchanged; also recorded: kept their original crystalline forms; also recorded: Form 1”. In addition, the “moisture sorption (weight change)” value in data set [3] is “less than 0.3%”. Besides, the “reduction of chemical purity” value in data set [4] was “essentially unchanged; also recorded: still kept their original respective purity level”. Besides, the “Purity (%)” value is reported as 99.7% in data set [4] (1 day) and 99.6% in data set [4] (7 days).
Consider `CC(O)c1cc(C(=O)N[C@@H](C)Cn2ccc(-c3ccc(C#N)c(Cl)c3)n2)n[nH]1` (stereo partly drawn) [ODM-201 Form 4, N—((S)-1-(3-(3-chloro-4-cyanophenyl)-1H-pyrazol-1-yl)prop-2-yl)-5-(1-hydroxyethyl)-1H-pyrazole-3-carboxamide], for which the “Solubility” value in data set [1] (25 ± 2° C.) came out at 59.5 µg/mL (≈ 149 µM); in data set [1] (37 ± 2° C.), 88.6 µg/mL (≈ 222 µM). For the same compound, in data set [2], the “The test results after 7 days” value is “kept their original crystalline forms; also recorded: keeps its form unchanged; also recorded: Form 4”. In data set [3], the “moisture sorption (weight change)” value is reported as “less than 0.2%”. Further, in data set [4], the “reduction of chemical purity” value was “still kept their original respective purity level; also recorded: essentially unchanged”. Also, the “Purity (%)” value in data set [4] (1 day) turned out to be 99.2%; in data set [4] (7 days), 99.1%.
For `CC(O)c1cc(C(=O)N[C@@H](C)Cn2ccc(-c3ccc(C#N)c(Cl)c3)n2)[nH]n1` (stereo partly drawn) [ODM-201 Form 3, N—((S)-1-(3-(3-chloro-4-cyanophenyl)-1H-pyrazol-1-yl)prop-2-yl)-5-(1-hydroxyethyl)-1H-pyrazole-3-carboxamide], the figures for the “Solubility” value in data set [1] (25 ± 2° C.) and in data set [1] (37 ± 2° C.) were 12.5 µg/mL (≈ 31.3 µM) and 24.3 µg/mL (≈ 60.9 µM), respectively.
On to `CC(O)c1cc(C(=O)N[C@@H](C)Cn2ccc(-c3ccc(C#N)c(Cl)c3)n2)n[nH]1` (stereo partly drawn) [amorphous ODM-201, N—((S)-1-(3-(3-chloro-4-cyanophenyl)-1H-pyrazol-1-yl)prop-2-yl)-5-(1-hydroxyethyl)-1H-pyrazole-3-carboxamide, reference compound], for which the figures for the “The test results after 7 days” value in data set [2] and in data set [2] (listed as ODM-201 amorphous form) were “begins to show a weak crystalline state; also recorded: Amorphous with weak crystalline peaks” and “began to show a weak crystalline state”, respectively. The “moisture sorption (weight change)” value in data set [3] is recorded as 6.4%. Moreover, in data set [4], the “reduction of chemical purity” value is listed as “more than 1%”. For the same compound, the “Purity (%)” value is listed as 99.7% in data set [4] (1 day) and 98.2% in data set [4] (7 days).

The values above are taken from patent US11236073B2, “ODM-201 crystalline form, preparation method therefor, and pharmaceutical composition thereof” (Hangzhou SoliPharma Co., Ltd., priority 2017, dated 2022).
